Data taken from patent US11111251B2, “Positive allosteric modulators of the muscarinic acetylcholine receptor M1” (Vanderbilt University, priority 2016, dated 2021).

Biological target: T1, human mAChR M1 (Homo sapiens, UniProt P11229)
T1 sequence (P11229 1-460): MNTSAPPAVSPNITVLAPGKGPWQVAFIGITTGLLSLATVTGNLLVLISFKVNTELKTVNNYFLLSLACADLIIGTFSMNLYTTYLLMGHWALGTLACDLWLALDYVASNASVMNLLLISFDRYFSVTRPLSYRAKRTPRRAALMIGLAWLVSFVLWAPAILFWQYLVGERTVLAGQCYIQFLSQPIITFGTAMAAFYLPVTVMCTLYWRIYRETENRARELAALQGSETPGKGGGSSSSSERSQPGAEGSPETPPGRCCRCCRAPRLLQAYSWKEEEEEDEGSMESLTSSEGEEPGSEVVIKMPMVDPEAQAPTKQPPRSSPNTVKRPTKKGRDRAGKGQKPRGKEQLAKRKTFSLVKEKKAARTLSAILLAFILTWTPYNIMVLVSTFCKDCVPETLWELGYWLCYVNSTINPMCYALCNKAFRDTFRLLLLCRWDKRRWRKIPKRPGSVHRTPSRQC
Assay: mAChR M1 cell-based functional assay: calcium mobilization, positive allosteric modulator mode (increase in EC20 acetylcholine response)
Details: Table 2, human M1; for EC50: read-out: Human M1 EC50; for Emax: read-out: Human M1 Emax (%)
How it was run: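 Calcium-flux assay in CHO-K1 cells stably expressing human M1, loaded with Fluo-4 AM (50 min, 37 °C) and read at 1 Hz. Compound (11-point, 1:3 series) was added at 4 s, EC20 acetylcholine at 144 s and EC80 at 230 s. PAM activity is the concentration-dependent rise in the EC20 response, fitted with a four-parameter logistic.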

| Structure (SMILES) | EC50 | Emax |
| --- | --- | --- |
| Cc1csc2c(Cc3ccc(-c4ccn(C)n4)cc3)cc(C(=O)N[C@H]3CCOC3)nc12 [Compound 306] | 2920 nM | 79.3% |
| Cc1csc2c(Cc3ccc(-c4ccn(C)n4)cc3)cc(C(=O)NC3COC3)nc12 [Compound 307, 3-methyl-7-[[4-(1-methylpyrazol-3-yl)phenyl]methyl]-N-(oxetan-3-yl)thieno[3,2-b]pyridine-5-carboxamide] | 3440 nM | 67.2% |
| Cc1csc2c(Cc3ccc(-c4ccn(C)n4)cc3)cc(C(=O)NC3CC(F)C3)nc12 (stereo not drawn) [Compound 308, N-(3-fluorocyclobutyl)-3-methyl-7-[[4-(1-methylpyrazol-3-yl)phenyl]methyl]thieno[3,2-b]pyridine-5-carboxamide] | 5360 nM | 62.1% |
| Cc1csc2c(Cc3ccc(-c4ccn(C)n4)cc3)cc(C(=O)NC3CC(F)(F)C3)nc12 [Compound 309, N-(3,3-difluorocyclobutyl)-3-methyl-7-[[4-(1-methylpyrazol-3-yl)phenyl]methyl]thieno[3,2-b]pyridine-5-carboxamide] | 4930 nM | 57.3% |
| Cc1csc2c(Cc3ccc(-c4ccn(C)n4)cc3)cc(C(=O)NCC3CCO3)nc12 (stereo not drawn) [Compound 310, 3-methyl-7-[[4-(1-methylpyrazol-3-yl)phenyl]methyl]-N-(oxetan-2-ylmethyl)thieno[3,2-b]pyridine-5-carboxamide] | 471 nM | 78.1% |
| Cc1csc2c(Cc3ccc(-c4ccn(C)n4)cc3)cc(C(=O)NCC3CCOC3)nc12 (stereo not drawn) [Compound 311, 3-methyl-7-[[4-(1-methylpyrazol-3-yl)phenyl]methyl]-N-(tetrahydrofuran-3-ylmethyl)thieno[3,2-b]pyridine-5-carboxamide] | 714 nM | 77.1% |
| Cc1csc2c(Cc3ccc(-c4ccn(C)n4)cc3)cc(C(=O)N[C@H]3CCCC[C@@H]3O)nc12 [Compound 312, N-[(1S,2S)-2-hydroxycyclohexyl]-3-methyl-7-[[4-(1-methylpyrazol-3-yl)phenyl]methyl]thieno[3,2-b]pyridine-5-carboxamide] | 109 nM | 65.5% |
| Cc1csc2c(Cc3ccc(-c4ccn(C)n4)cc3)cc(C(=O)N[C@H]3CCOC[C@@H]3O)nc12 [Compound 313] | 22.7 nM | 63.9% |
| O=C(N[C@H]1CCC[C@@H]1O)c1cc(Cc2ccc(-c3nccs3)cc2)c2sccc2n1 [Compound 314] | 203 nM | 84.1% |
| Cc1csc2c(Cc3ccc(-n4cccn4)cc3)cc(C(=O)NC3CC4(COC4)C3)nc12 [Compound 315, 3-methyl-N-(2-oxaspiro[3.3]heptan-6-yl)-7-[(4-pyrazol-1-ylphenyl)methyl]thieno[3,2-b]pyridine-5-carboxamide] | 475 nM | 82.3% |
| Cc1csc2c(Cc3ccc(-n4cccn4)cc3)cc(C(=O)N[C@@H]3CCOC3)nc12 [Compound 316, 3-methyl-7-[(4-pyrazol-1-ylphenyl)methyl]-N-[(3R)-tetrahydrofuran-3-yl]thieno[3,2-b]pyridine-5-carboxamide] | 1090 nM | 56.5% |
| Cc1csc2c(Cc3ccc(-n4cccn4)cc3)cc(C(=O)N[C@H]3CCOC3)nc12 [Compound 317, 3-methyl-7-[(4-pyrazol-1-ylphenyl)methyl]-N-[(3S)-tetrahydrofuran-3-yl]thieno[3,2-b]pyridine-5-carboxamide] | 1680 nM | 43.1% |
| Cc1csc2c(Cc3ccc(-n4cccn4)cc3)cc(C(=O)NCC3CCOCC3)nc12 [Compound 318, 3-methyl-7-[(4-pyrazol-1-ylphenyl)methyl]-N-(tetrahydropyran-4-ylmethyl)thieno[3,2-b]pyridine-5-carboxamide] | 1410 nM | 72.2% |
| Cc1csc2c(Cc3ccc(-n4cccn4)cc3)cc(C(=O)NC3COC3)nc12 [Compound 319, 3-methyl-N-(oxetan-3-yl)-7-[(4-pyrazol-1-ylphenyl)methyl]thieno[3,2-b]pyridine-5-carboxamide] | 1810 nM | 56.1% |
| Cc1csc2c(Cc3ccc(-n4cccn4)cc3)cc(C(=O)NCC3CCCCO3)nc12 (stereo not drawn) [Compound 320, 3-methyl-7-[(4-pyrazol-1-ylphenyl)methyl]-N-(tetrahydropyran-2-ylmethyl)thieno[3,2-b]pyridine-5-carboxamide] | 3980 nM | 60.7% |
| Cc1csc2c(Cc3ccc(-n4cccn4)cc3)cc(C(=O)NCC3CCOC3)nc12 (stereo not drawn) [Compound 321, 3-methyl-7-[(4-pyrazol-1-ylphenyl)methyl]-N-(tetrahydrofuran-3-ylmethyl)thieno[3,2-b]pyridine-5-carboxamide] | 805 nM | 79.2% |
| Cc1csc2c(Cc3ccc(-n4cccn4)cc3)cc(C(=O)NC[C@H]3CCCO3)nc12 [Compound 322, 3-methyl-7-[(4-pyrazol-1-ylphenyl)methyl]-N-[[(2R)-tetrahydrofuran-2-yl]methyl]thieno[3,2-b]pyridine-5-carboxamide] | 620 nM | 75.1% |
| Cc1csc2c(Cc3ccc(-n4cccn4)cc3)cc(C(=O)NC[C@@H]3CCCO3)nc12 [Compound 323, 3-methyl-7-[(4-pyrazol-1-ylphenyl)methyl]-N-[[(2S)-tetrahydrofuran-2-yl]methyl]thieno[3,2-b]pyridine-5-carboxamide] | 689 nM | 76.8% |
| Cc1csc2c(Cc3ccc(-n4cccn4)cc3)cc(C(=O)NCC3CCO3)nc12 (stereo not drawn) [Compound 324, 3-methyl-N-(oxetan-2-ylmethyl)-7-[(4-pyrazol-1-ylphenyl)methyl]thieno[3,2-b]pyridine-5-carboxamide] | 1050 nM | 78.9% |
| Cn1ccc(-c2ccc(Cc3cc(C(=O)NC4CCOC(C)(C)C4)nc4ccsc34)cc2)n1 (stereo not drawn) [Compound 325, N-(2,2-dimethyltetrahydropyran-4-yl)-7-[[4-(1-methylpyrazol-3-yl)phenyl]methyl]thieno[3,2-b]pyridine-5-carboxamide] | 907 nM | 83.3% |
| CC1CC(NC(=O)c2cc(Cc3ccc(-c4ccn(C)n4)cc3)c3sccc3n2)CC(C)O1 (stereo not drawn) [Compound 326, N-(2,6-dimethyltetrahydropyran-4-yl)-7-[[4-(1-methylpyrazol-3-yl)phenyl]methyl]thieno[3,2-b]pyridine-5-carboxamide] | 2840 nM | 83.9% |
| Cn1cc(-c2ccc(Cc3cc(C(=O)NC4CC5(COC5)C4)nc4ccsc34)cn2)cn1 [Compound 327, 7-[[6-(1-methylpyrazol-4-yl)-3-pyridyl]methyl]-N-(2-oxaspiro[3.3]heptan-6-yl)thieno[3,2-b]pyridine-5-carboxamide] | 166 nM | 79.2% |
| Cn1cc(-c2ccc(Cc3cc(C(=O)N[C@H]4CC[C@@H]4O)nc4ccsc34)cn2)cn1 [Compound 328, N-[(1S,2S)-2-hydroxycyclobutyl]-7-[[6-(1-methylpyrazol-4-yl)-3-pyridyl]methyl]thieno[3,2-b]pyridine-5-carboxamide] | 197 nM | 80.5% |
| Cc1nc(-c2ccc(Cc3cc(C(=O)NC4CCOCC4)nc4c(C)csc34)cc2)co1 [Compound 329, 3-methyl-7-[[4-(2-methyloxazol-4-yl)phenyl]methyl]-N-tetrahydropyran-4-yl-thieno[3,2-b]pyridine-5-carboxamide] | 458 nM | 73.5% |
